Among the data in patent publication US6548495B2, “Dihydro-benzo [B] [1,4] diazepin-2-one derivatives” (Hoffmann-La Roche Inc., priority 2002, dated 2003) are melting point and Ki values, retold here.

Data set [1] deals with T1, recombinant rat mGluR2 expressed in CHO cells (Rattus norvegicus, UniProt P31421).
T1 construct: expressed in transfected cells; host or cells: CHO cells, stably transfected with pcD1mGR2 (pcDNA I-amp), G-418 selected; membranes used
The data set is described as follows: [3H]-LY354740 binding on mGlu2 transfected CHO cell membranes (displacement binding assay). Conditions: displacement of 10 nM [3H]-LY354740, membranes of CHO cells expressing rat mGlu2, room temperature, 1 hour; Ki calculated from IC50 with the Cheng and Prusoff equation. From the text:
In Table I below some specific Ki values of preferred compounds of the invention are presented. These values were obtained by indirect measurement of the affinity of the compounds for the recombinant rat mGluR2 expressed in CHO cells using a displacement binding assay with 3H-LY354740.
[^3H]-LY354740 Binding on mGlu2 Transfected CHO Cell Membranes
Transfection and Cell Culture
cDNA encoding the rat mGlu2 receptor protein in pBluescript II was obtained from Prof. S. Nakanishi (Kyoto, Japan), and subcloned into the eukaryotic expression vector pcDNA I-amp from Invitrogen (NV Leek, The Netherlands). This vector construct (pcD1mGR2) was co-transfected with a psvNeo plasmid encoding the gene for neomycin resistance, into CHO cells by a modified calcium phosphate method described by Chen & Okayama (1988). The cells were maintained in Dulbecco's Modified Eagle medium with reduced L-glutamine (2 mM final concentration) and 10% dialysed foetal calf serum from Gibco BRL (Basel, Switzerland). Selection was made in the presence of G-418 (1000 ug/mL final). Clones were identified by reverse transcription of 5 μg total RNA, followed by PCR using mGlu2 receptor specific primers 5′-[…]-3′ and 5′-[…]-3′ in 60 mM Tris HCl (pH 10), 15 mM (NH4)2SO4, 2 mM MgCl2, 25 units/mL Taq Polymerase with 30 cycles annealing at 60° C. for 1 min., extention at 72° C. for 30 s, and 1 min. 95° C. denaturation.
Cells, cultured as above, were harvested and washed three times with cold PBS and frozen at −80° C. The pellet was resuspended in cold 20 mM HEPES-NaOH buffer containing 10 mM EDTA (pH 7.4), and homogenised with a polytron (Kinematica, AG, Littau, Switzerland) for 10 s at 10000 rpm. After centrifugation for 30 min. at 4° C., the pellet was washed once with the same buffer, and once with cold 20 mM HEPES-NaOH buffer containing 0.1 mM EDTA, (pH 7.4). Protein content was measured using the Pierce method (Socochim, Lausanne, Switzerland) using bovine serum albumin as standard.
After thawing, the membranes were resuspended in cold 50 mM Tris-HCl buffer containing 2 mM MgCl2 and 2 mM CaCl2, (pH 7) (binding buffer). The final concentration of the membranes in the assays was 25 μg protein/mL. Inhibition experiments were performed with membranes incubated with 10 nM [^3H]-LY354740 at room temperature, for 1 hour, in presence of various concentrations of the compound to be tested. Following the incubations, membranes were filtered onto Whatmann GF/C glass fiber filters and washed 5 times with cold binding buffer. Non specific binding was measured in the presence of 10 μM DCG IV. After transfer of the filters into plastic vials containing 10 mL of Ultima-gold scintillation fluid (Packard, Züirich, Switzerland), the radioactivity was measured by liquid scintillation in a Tri-Carb 2500 TR counter (Packard, Züirich, Switzerland).
The inhibition curves were fitted with a four parameter logistic equation giving IC50 values, and Hill coefficients and the Ki values were calculated using the Cheng and Prusoff equation (Cheng, Y. and Prusoff, W. H., Biochem. Pharmacol. 1973, 22, 3099-3108). A small Ki value expresses high affinity of the compound towards the receptor.

T1 sequence (P31421 19-872): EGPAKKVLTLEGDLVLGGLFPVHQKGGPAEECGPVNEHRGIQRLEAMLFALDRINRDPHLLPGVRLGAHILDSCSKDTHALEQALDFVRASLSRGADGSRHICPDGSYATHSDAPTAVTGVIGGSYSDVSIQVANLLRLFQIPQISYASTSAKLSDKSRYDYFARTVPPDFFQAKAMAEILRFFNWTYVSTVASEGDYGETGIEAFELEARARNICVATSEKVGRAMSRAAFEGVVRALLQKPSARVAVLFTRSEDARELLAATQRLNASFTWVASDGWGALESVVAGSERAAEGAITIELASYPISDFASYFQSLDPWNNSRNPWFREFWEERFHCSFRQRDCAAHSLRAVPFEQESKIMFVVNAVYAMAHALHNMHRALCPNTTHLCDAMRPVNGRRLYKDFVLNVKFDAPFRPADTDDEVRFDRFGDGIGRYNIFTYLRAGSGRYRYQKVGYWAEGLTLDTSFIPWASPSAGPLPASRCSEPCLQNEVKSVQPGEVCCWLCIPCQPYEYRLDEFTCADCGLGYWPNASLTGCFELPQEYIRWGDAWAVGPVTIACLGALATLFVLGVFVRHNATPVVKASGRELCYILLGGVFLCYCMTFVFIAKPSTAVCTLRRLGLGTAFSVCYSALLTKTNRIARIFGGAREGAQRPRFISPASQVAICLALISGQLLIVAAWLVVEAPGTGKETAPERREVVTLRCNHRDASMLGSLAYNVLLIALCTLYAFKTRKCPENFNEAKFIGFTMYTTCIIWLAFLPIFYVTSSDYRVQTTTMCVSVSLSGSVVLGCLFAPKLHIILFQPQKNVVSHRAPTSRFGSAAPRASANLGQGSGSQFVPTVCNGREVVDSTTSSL

In the case of `NC(=O)c1coc(-c2cccc(C3=Nc4ccc(-n5cccc5)cc4NC(=O)C3)c2)n1` [Example 27, 2-[3-(4-oxo-7-Pyrrol-1-yl-4,5-dihydro-3H-benzo[b][1,4]diazepin-2-yl)-phenyl]-oxazole-4-carboxylic Acid Amide], the melting point (as a rule, the temperature of the solid-liquid transition) lay in the range of 232 to 234 °C. For the same compound, in data set [1], the Ki (as a rule, a dissociation constant, usually derived from enzyme kinetics or from competition with a known ligand) was 62 nM.

As to `Cc1cc2c(cc1C(F)(F)F)NC(=O)CC(c1cccc(-n3cccn3)c1)=N2` [Example 77, 7-Methyl-4-(3-pyrazol-1-yl-phenyl)-8-trifluoromethyl-1,3-dihydro-benzo[b][1,4]diazepin-2-one], the melting point is 235 °C. Besides, the Ki in data set [1] was 70 nM.

In turn, `N#Cc1cccc(C2=Nc3cc(I)c(-n4cccc4)cc3NC(=O)C2)c1` [Example 9, 3-(8-Iodo-4-oxo-7-pyrrol-1-yl-4,5-dihydro-3H-benzo[b][1,4]diazepin-2-yl)-benzonitrile] displayed a melting point of 215 °C. Moreover, the Ki in data set [1] is 75 nM.

In turn, `O=C1CC(c2cccc(-c3nc(C(=O)NCCO)co3)c2)=Nc2ccc(-n3cccc3)cc2N1` [Example 34, 2-[3-(4-oxo-7-Pyrrol-1-yl-4,5-dihydro-3H-benzo[b][1,4]diazepin-2-yl)-phenyl]-oxazole-4-carboxylic Acid (2-Hydroxy-ethyl)-amide] had a melting point of 242 to 244 °C. The Ki in data set [1] was 91 nM.

The compound `Cc1cc(-c2cccc(C3=Nc4cc(N5CCSCC5)c(C#N)cc4NC(=O)C3)c2)on1` [Example 62, 2-[3-(3-Methyl-isoxazol-5-yl)-phenyl]-4-oxo-8-thiomorpholin-4-yl-4,5-dihydro-3H-benzo[b][1,4]diazepine-7-carbonitrile] registered a melting point of 245 °C. Also, in data set [1], the Ki is 32.5 nM.

`Cn1nccc1-c1cccc(C2=Nc3cc(N4CCOCC4)c(C(F)(F)F)cc3NC(=O)C2)c1` [Example 38, 4-[3-(2-Methyl-2H-pyrazol-3-yl)-phenyl]-7-morpholin-4-yl-8-trifluoromethyl-1,3-dihydro-benzo[b][1,4]diazepin-2-one] yielded a melting point of 211 °C. The Ki in data set [1] is 6 nM.

As to `COc1cc2c(cc1-n1cccc1C(C)(C)C)NC(=O)CC(c1cccc(C#N)c1)=N2` [Example 18, 3-[7-(2-tert.-Butyl-pyrrol-1-yl)-8-methoxy-4-oxo-4,5-dihydro-3H-benzo[b][1,4]diazepin-2-yl]-benzonitrile], the melting point is over 250 °C. Besides, the Ki in data set [1] is 80 nM.

Compound `Cc1cc2c(cc1C(F)(F)F)NC(=O)CC(c1ccnc(C#N)c1)=N2` [Example 58, 4-(8-Methyl-4-oxo-7-trifluoromethyl-4,5-dihydro-3H-benzo[b][1,4]diazepin-2-yl)-pyridine-2-carbonitrile] returned a melting point of 235 °C. The Ki in data set [1] is 8.5 nM.

In turn, `O=C1CC(c2cccc(-c3ncco3)c2)=Nc2ccc(-n3cccc3)cc2N1` [Example 22, 4-(3-Oxazol-2-yl-phenyl)-8-pyrrol-1-yl-1,3-dihydro-benzo[b][1,4]diazepin-2-one] had a melting point of 251 to 253 °C. For the same compound, the Ki in data set [1] is 23 nM.

Compound `O=C1CC(c2cccc(-n3nncc3CO)c2)=Nc2cc(N3CCOCC3)c(C(F)(F)F)cc2N1` [Example 1, 4-[3-(5-Hydroxymethyl-[1,2,3]triazol-1-yl)-phenyl]-7-morpholin-4-yl-8-trifluoromethyl-1,3-dihydro-benzo[b][1,4]diazepin-2-one] registered a melting point of 200 °C. Moreover, in data set [1], the Ki is 74 nM.

`CCOc1cc2c(cc1C(F)(F)F)NC(=O)CC(c1ccnc(C#N)c1)=N2` [Example 53, 4-(8-Ethoxy-4-oxo-7-trifluoromethyl-4,5-dihydro-3H-benzo[b][1,4]diazepin-2-yl)-pyridine-2-carbonitrile] yielded a melting point of 233 °C. Besides, the Ki in data set [1] is 8 nM.

Turning to `Cc1cc2c(cc1C(F)(F)F)NC(=O)CC(c1cccc(-c3nc(CO)sc3C)c1)=N2` [Example 84, 4-[3-(2-Hydroxymethyl-5-methyl-thiazol-4-yl)-phenyl]-7-methyl-8-trifluoromethyl-1,3-dihydro-benzo[b][1,4]diazepin-2-one], the melting point was in the range of 214 to 217 °C. Besides, in data set [1], the Ki was 6.5 nM.

Compound `O=C1CC(c2cccc(-n3nncc3CNC3CC3)c2)=Nc2cc(Cl)c(C(F)(F)F)cc2N1` [Example 67, 7-Chloro-4-[3-(5-cyclopropylaminomethyl-[1,2,3]triazol-1-yl)-phenyl]-8-trifluoromethyl-1,3-dihydro-benzo[b][1,4]diazepin-2-one] gave a melting point of 206 °C. The Ki in data set [1] is 15.5 nM.

As for `N#Cc1cc(C2=Nc3cc(N4CCOCC4)c(C(F)(F)F)cc3NC(=O)C2)ccn1` [Example 2, 4-(8-Morpholin-4-yl-4-oxo-7-trifluoromethyl-4,5-dihydro-3H-benzo[b][1,4]diazepin-2-yl)-pyridine-2-carbonitrile], the melting point worked out at 220 °C. For the same compound, the Ki in data set [1] is 20 nM.

On to `CCOC(=O)c1ncoc1-c1cccc(C2=Nc3ccc(-n4cccc4)cc3NC(=O)C2)c1` [Example 23, 5-[3-(4-oxo-7-Pyrrol-1-yl-4,5-dihydro-3H-benzo[b][1,4]diazepin-2-yl)-phenyl]-oxazole-4-carboxylic Acid Ethyl Ester], for which the melting point lay in the range of 222 to 224 °C. In addition, in data set [1], the inhibition constant Ki is 29 nM.

As for `Cc1cc2c(cc1C(F)(F)F)NC(=O)CC(c1cccc(-n3nncc3CNC3CC3)c1)=N2` [Example 69, 4-[3-(5-Cyclopropylaminomethyl-[1,2,3]triazol-1-yl)-phenyl]-7-methyl-8-trifluoromethyl-1,3-dihydro-benzo[b][1,4]diazepin-2-one], the melting point worked out at 181 °C. In addition, the Ki in data set [1] was 26 nM.

Regarding `CCOc1cc2c(cc1C(F)(F)F)NC(=O)CC(c1cccc(-n3nncc3CO)c1)=N2` [Example 52, 7-Ethoxy-4-[3-(5-hydroxymethyl-[1,2,3]triazol-1-yl)-phenyl]-8-trifluoromethyl-1,3-dihydro-benzo[b][1,4]diazepin-2-one], the melting point turned out to be 214 °C. Also, in data set [1], the Ki is 83.5 nM.

In turn, `O=C1CC(c2cccc(-c3nc(CO)cs3)c2)=Nc2ccc(-n3cccc3)cc2N1` [Example 20, 4-[3-(4-Hydroxymethyl-thiazol-2-yl)-phenyl]-8-pyrrol-1-yl-1,3-dihydro-benzo[b][1,4]diazepin-2-one] showed a melting point of 238 to 240 °C. Also, in data set [1], the inhibitory constant (Ki) was 28 nM.

`O=C1CC(c2cccc(-n3ccnn3)c2)=Nc2ccc(-n3cccc3)cc2N1` [Example 21, 8-Pyrrol-1-yl-4-(3-[1,2,3]triazol-1-yl-phenyl)-1,3-dihydro-benzo[b][1,4]diazepin-2-one] showed a melting point of 206 to 209 °C. Further, the inhibition constant Ki in data set [1] is 7.5 nM.

Compound `N#Cc1cccc(C2=Nc3ccc(-n4cccc4)cc3NC(=O)C2)c1` [Example 4, 3-(4-oxo-7-Pyrrol-1-yl-4,5-dihydro-3H-benzo[b][1,4]diazepin-2-yl)-benzonitrile] gave a melting point of 219 °C. For the same compound, the Ki in data set [1] was 35 nM.

Compound `O=C1CC(c2cccc(-n3ccnc3)c2)=Nc2ccc(-n3cccc3)cc2N1` [Example 16, 4-(3-Imidazol-1-yl-phenyl)-8-pyrrol-1-yl-1,3-dihydro-benzo[b][1,4]diazepin-2-one] came in with a melting point of 220 °C. Also, the Ki in data set [1] is 25 nM.

For `N#Cc1cc(C2=Nc3cc(N4CCSCC4)c(C(F)(F)F)cc3NC(=O)C2)ccn1` [Example 42, 4-(4-oxo-8-Thiomorpholin-4-yl-7-trifluoromethyl-4,5-dihydro-3H-benzo[b][1,4]diazepin-2-yl)-pyridine-2-carbonitrile], the melting point fell in the range of 195 to 199 °C. In addition, the Ki in data set [1] is 0.9 nM.
